What was measured:
[1] = Rat arthritis model induced by type II collagen (CIA); format: in vivo; settings: 4 mg/kg oral once a day, CIA rats
Experimental: Example 9 Therapeutic Effect of the Compound of the Present Invention on a Rat Arthritis Model Induced by Type II Collagen
An appropriate amount of bovine type II collagen (CII, Chondrex (Redmond, WA, USA), Cat #20021) was weighed and dissolved in 0.1 mole of acetic acid (SPGC Sinopharm Chemical Reagent Co., Ltd (Shanghai, P.R.China), Cat #: 10000218.), which was formulated into a solution with a concentration of 6 mg/mL, stirred at 4° C. overnight, and added with an equal volume of Freund's incomplete adjuvant (Sigma-Aldrich. (St. Louis, MO, USA), Cat #: SLBW0366.), fully emulsified to prepare an emulsion with a CII concentration of 3 mg/mL. […]
The paw volume was measured on day 8 after immunization, and the left and right hind paw volumes (V) were measured every day after the paw volume increase was detected. […]
The area under the curve (AUC) of the average paw volume change is the area under the curve of the arthrosis score change calculated by the trapezoid method, and the calculation formula is: AUCpaw volume=½×(APSd1+APSd2)λ(d2−d1)+½×(APSd2+APSd3)×(d3-d2)+. . . +½×(APSdn+APSd(n-1))×(dn−dn-1)
ED50 is calculated by XLfit software according to the AUC inhibition ratio of the area under the curve of the average paw volume change. […]

[2] = Study on in vivo pharmacokinetics in mice; design: species or system mouse; settings: mice, intragastric, 10 mg/kg
Source text: Example 6 Study on In Vivo Pharmacokinetics in Mice
Solutol HS15 was purchased from BASF, Germany, ethanol (anhydrous) was purchased from Nanjing Chemical Reagent Co., Ltd., physiological saline was purchased from Huayu (Wuxi) Pharmaceutical Co., Ltd., dimethyl sulfoxide (DMSO) and sodium carboxymethyl cellulose 800-1200 (CMC-Na) were purchased from Sinopharm Chemical Reagent Co., Ltd.
Preparation of ethanol/Solutol mixed solution (1:1, v/v): taking an appropriate amount of Solutol HS15 in a centrifuge tube and placing in a 37° C. water bath until dissolved, placing on the bench top to room temperature, taking 1 mL of Solutol in a centrifuge tube containing 1 mL of ethanol and mixing well to obtain the mixed solution.
Taking an appropriate amount of stock solution and placing in a blank centrifuge tube, adding an appropriate amount of ethanol/Solutol mixed solution prepared in advance, vortexing, then adding an appropriate amount of physiological saline, and mixing well until a transparent liquid.
3. Administration to Animals and Sample Collection:
Male ICR mice were purchased from Shanghai Lingchang Biotechnology Co., Ltd. 18 mice were randomly divided into intravenous administration group and intragastric administration group. The mice were fasted overnight before administration. The mice were withheld food but allowed to access water freely within 4 hours after administration, and allowed to freely access food and water after 4 hours. After anesthesia with isoflurane, blood was collected from the retroorbital venous plexus and placing in an centrifuge tube containing anticoagulant, and the centrifuge tube was stored in an box containing wet ice until the plasma was centrifuged.
The plasma samples were pre-treated and then analyzed by liquid chromatography-tandem mass spectrometry (LC-MS/MS), the instrument model was API5500. The analytical chromatographic column was Waters XSELECT HSS T3 C18 column (50×2.1 mm, 2.5 μm). In the mobile phases, deionized water containing 0.1% formic acid and 0.1% acetonitrile was used as the aqueous phase and acetonitrile containing 0.1% formic acid was used as the organic phase. The concentrations of the compound in the samples were determined as follows. Firstly, a standard curve was established, and the peak area ratios of the compound 19 to the internal standard in the standard curve were used as indexes. The theoretical concentrations of compound 19 and the peak area ratios of compound 19 to the internal standard were fitted with a quadratic regression equation to obtain the regression equation. The sample concentrations were calculated by measuring the peak area ratio of the compound of the test sample to the internal standard according to the standard curve.

[3] = Stability test in liver microsomes (rat); format: in vitro ADME; settings: rat liver microsomes, 1 μM compound, 30 min
Source text: (§1) Example 5 Stability Test in Liver Microsomes
(§2) Both male CD-1 mouse pooled liver microsomes and male SD rat pooled liver microsomes were purchased from BioreclamationIVT Corporation, USA.
(§3) Phenacetin, glucose-6-phosphate dehydrogenase (G-6-PDH) and nicotinamide adenine dinucleotide phosphate (NADP) were all purchased from Sigma-Aldrich Corporation, USA. Glucose-6-phosphate (G-6-P) was purchased from Shanghai Eybridge Chemical Technology Co., Ltd.
(§4) Ten mM test compound stock solution: a certain amount of test compound was weighed, and dissolved with an appropriate volume of DMSO to prepare a stock solution with a concentration of 10 mM for use.
(§5) Reaction stopping solution: an appropriate amount of internal standard compound phenacetin was dissolved in acetonitrile to prepare a reaction stopping solution with a concentration of 1000 ng/mL for use at room temperature.
(§6) The test compound stock solution was diluted with an organic solvent (usually a mixture of acetonitrile, methanol and water with various ratios, depending on the solubility of the compound, if necessary, 1 N hydrochloric acid or 1 N sodium hydroxide would be added to facilitate solubilization) to the 0.1 mM (the final concentration of the compound in the reaction system was 1 μM) and the concentration percentage of the organic solvents in the incubation system no more than 1% (wherein the percentage of DMSO was required to be no more than 0.1%). An appropriate amount of 100 mM NADP, 500 mM G-6-P and 100 Unit/mL G-6-PDH were mixed and diluted with ultrapure water (the final system contains 1 mM NADP, 5 mM G-6-P and 1 Unit/mL G-6-PDH), pre-incubated in a 37° C. water bath for 10 minutes and then placed on ice for use as a NADPH regeneration solution. 20 mg/mL liver microsomes solution and 200 mM phosphate buffer was mixed, and diluted with ultrapure water to give a liver microsomes solution containing 2.5 mg/mL liver microsomes (the final concentration of the reaction system is 0.5 mg/mL) and 50 mM phosphate buffer. The diluted liver microsomes solution was mixed with 0.1 mM compound solution, a mixture of 100 mM EDTA, 300 mM MgCl2 solution, 200 mM phosphate buffer (the final system was 3 mM MgCl2, 1 mM EDTA and 50 mM phosphate buffer) and water in an appropriate volume was added. Finally, the NADPH regeneration solution was added, then the reaction solution was placed in a 37° C. water bath to start the reaction (the reaction time was 30 minutes), and the reaction was stopped by adding the ice-cold acetonitrile reaction stopping solution containing the internal standard. The 0-minute sample was not incubated in a 37° C. water bath, and its difference from the 30-minute sample further lies in that the ice-cold acetonitrile reaction stopping solution containing the internal standard was added first, and then the NADPH regeneration solution was added. The sample added with the reaction stopping internal standard solution was vortexed and mixed well, and then centrifuged at 4400 rpm for 10 minutes. The supernatant was taken and diluted ten times with 50% methanol for LC-MS/MS analysis.
(§7) LC-MS/MS was used to determine the concentration of the compound in the sample. The percentage of the remaining compound after 30 minutes of incubation comparing with that in the 0-minute sample was calculated using the peak area ratio of the compound to the internal standard as an indicator, to evaluate the metabolic stability of the compound.
(§8) Instrument: API4500, API4000 or LTQ Mass Spectrometer; the liquid phase is UHPLC system (Shimadzu LC-30 AD, model Nexra X2) including liquid delivery unit, column thermostat, detector and autosampler; or Agilent 1200 Binary Pump series HPLC and CTC Autosampler.
(§9) Chromatographic column: Waters XSELECT Hss T3 C18 (2.5 μm, 2.1×50 mm) or […] (5 μm, 2.0×50 mm)
(§10) Mobile phase: • A: water with 0.1% FA (formic acid) (with or without 0.1% ACN (acetonitrile)) • B: acetonitrile with 0.1% FA (formic acid).

[4] = Stability test in liver microsomes (mouse); format: in vitro ADME; settings: mouse liver microsomes, 1 μM compound, 30 min
Source text: as §1, §2, §3, §4, §5, §6, §7, §8, §9, §10

**Q.** For C[C@H]1CN(C2COC2)CCN1c1ccc(Nc2cc(-c3ccnc(N4CCn5c(cc6c5CC(C)(C)C6)C4=O)c3CO)cn(C)c2=O)nc1 [GDC-0853, fenebrutinib, reference compound], which “paw volume compared with vehicle control group” value [1] is on record?
**A.** Its value is “significantly reduced”.

**Q.** And the T1/2 [2]?
**A.** Its T1/2 is 1.5 h.

**Q.** What about the C8 h ([2]; plasma at 8 h) of the same compound?
**A.** Its C8 h is 143 ng/mL.

**Q.** What about the “RLM, percentage of remaining compound after 30 minutes of incubation” value [3] of the same compound?
**A.** The value was 81.0%.

**Q.** What about the “MLM, percentage of remaining compound after 30 minutes of incubation” value [4] of the same compound?
**A.** The value was 76.3%.
